Experimental data: patent US12030878B2 (BRISTOL-MYERS SQUIBB COMPANY, priority 2017, dated 2024)

How the values were obtained:
Assay type in all cases: cell-based
human TLR7 = biological target: T1, human TLR7 (Homo sapiens, UniProt Q9NYK1); test: TLR7 inhibition reporter assay (HEK-Blue SEAP); conditions: HEK-Blue cells overexpressing human TLR7, stimulated with gardiquimod 7.5 μM, 22 hour incubation
T1 construct: host or cells: HEK-Blue cells
T1 sequence (Q9NYK1 27-1049): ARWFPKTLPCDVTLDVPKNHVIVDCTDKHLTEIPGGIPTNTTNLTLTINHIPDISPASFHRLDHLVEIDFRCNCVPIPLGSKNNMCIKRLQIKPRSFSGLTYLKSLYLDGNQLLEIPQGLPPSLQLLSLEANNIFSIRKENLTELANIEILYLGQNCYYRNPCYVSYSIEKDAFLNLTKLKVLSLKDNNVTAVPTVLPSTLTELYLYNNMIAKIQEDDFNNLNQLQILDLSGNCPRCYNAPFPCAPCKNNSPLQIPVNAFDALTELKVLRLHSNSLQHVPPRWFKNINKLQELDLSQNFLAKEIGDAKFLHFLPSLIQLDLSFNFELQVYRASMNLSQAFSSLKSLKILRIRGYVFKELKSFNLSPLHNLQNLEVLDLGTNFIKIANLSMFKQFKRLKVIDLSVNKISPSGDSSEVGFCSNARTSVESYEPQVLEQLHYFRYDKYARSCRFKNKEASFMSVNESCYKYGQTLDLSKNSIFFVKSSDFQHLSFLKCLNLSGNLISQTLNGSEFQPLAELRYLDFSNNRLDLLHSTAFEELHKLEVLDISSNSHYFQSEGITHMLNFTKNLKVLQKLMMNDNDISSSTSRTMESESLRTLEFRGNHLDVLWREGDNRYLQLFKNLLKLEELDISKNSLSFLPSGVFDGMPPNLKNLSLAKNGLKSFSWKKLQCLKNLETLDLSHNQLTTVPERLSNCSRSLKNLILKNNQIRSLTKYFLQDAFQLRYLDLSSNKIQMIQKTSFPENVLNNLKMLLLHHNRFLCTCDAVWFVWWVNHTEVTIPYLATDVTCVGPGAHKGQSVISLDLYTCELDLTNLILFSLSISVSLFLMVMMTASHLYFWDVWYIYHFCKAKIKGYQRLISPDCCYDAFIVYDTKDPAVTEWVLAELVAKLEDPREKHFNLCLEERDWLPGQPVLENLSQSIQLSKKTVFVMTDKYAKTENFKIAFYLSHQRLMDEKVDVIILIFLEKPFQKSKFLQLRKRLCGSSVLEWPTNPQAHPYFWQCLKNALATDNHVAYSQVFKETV
Outline: (§1)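 Stimulation followed a 30 min room-temperature compound exposure (final 0.05 nM-50 μM): TLR7 cells with 7.5 μM gardiquimod, TLR8 with 15.9 μM R848, TLR9 with 5 nM ODN2006. After 22 h at 37 °C, secreted alkaline phosphatase was detected colorimetrically and inhibition calculated against DMSO and known-inhibitor controls.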

human TLR9 = biological target: T2, human TLR9 (Homo sapiens, UniProt Q9NR96); test: TLR9 inhibition reporter assay (HEK-Blue SEAP); conditions: HEK-Blue cells overexpressing human TLR9, stimulated with ODN2006 5 nM, 22 hour incubation
T2 construct: host or cells: HEK-Blue cells
T2 sequence (Q9NR96 26-1032): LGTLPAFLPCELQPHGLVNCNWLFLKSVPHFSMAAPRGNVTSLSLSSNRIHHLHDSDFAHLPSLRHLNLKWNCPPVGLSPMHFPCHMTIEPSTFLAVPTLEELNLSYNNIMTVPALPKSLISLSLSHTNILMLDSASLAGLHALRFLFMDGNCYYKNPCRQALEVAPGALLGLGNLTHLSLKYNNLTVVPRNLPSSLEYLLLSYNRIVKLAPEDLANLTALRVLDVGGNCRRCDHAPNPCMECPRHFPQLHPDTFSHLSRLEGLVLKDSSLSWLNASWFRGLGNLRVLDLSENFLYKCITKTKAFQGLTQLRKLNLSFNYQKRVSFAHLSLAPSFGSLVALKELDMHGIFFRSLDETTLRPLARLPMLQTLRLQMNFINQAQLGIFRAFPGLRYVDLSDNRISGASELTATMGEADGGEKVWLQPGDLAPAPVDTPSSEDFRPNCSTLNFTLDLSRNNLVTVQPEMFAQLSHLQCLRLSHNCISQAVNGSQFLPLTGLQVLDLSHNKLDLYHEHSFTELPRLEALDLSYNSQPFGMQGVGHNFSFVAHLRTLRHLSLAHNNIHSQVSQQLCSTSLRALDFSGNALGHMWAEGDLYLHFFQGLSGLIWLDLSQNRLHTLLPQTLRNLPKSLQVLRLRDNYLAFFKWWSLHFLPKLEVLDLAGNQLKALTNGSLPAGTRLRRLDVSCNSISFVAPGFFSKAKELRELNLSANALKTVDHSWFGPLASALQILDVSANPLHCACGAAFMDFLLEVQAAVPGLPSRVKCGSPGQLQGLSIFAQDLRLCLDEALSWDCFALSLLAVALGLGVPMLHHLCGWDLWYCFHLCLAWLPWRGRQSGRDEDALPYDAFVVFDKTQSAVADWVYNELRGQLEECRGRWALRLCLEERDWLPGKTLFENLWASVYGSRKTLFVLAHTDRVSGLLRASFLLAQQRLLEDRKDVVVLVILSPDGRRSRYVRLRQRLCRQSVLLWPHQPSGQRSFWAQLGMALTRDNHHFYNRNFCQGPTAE
Outline: as §1

human TLR8 = biological target: T3, human TLR8 (Homo sapiens, UniProt Q9NR97); test: TLR8 inhibition reporter assay (HEK-Blue SEAP); conditions: HEK-Blue cells overexpressing human TLR8, stimulated with R848 15.9 μM, 22 hour incubation
T3 construct: host or cells: HEK-Blue cells
T3 sequence (Q9NR97 27-1041): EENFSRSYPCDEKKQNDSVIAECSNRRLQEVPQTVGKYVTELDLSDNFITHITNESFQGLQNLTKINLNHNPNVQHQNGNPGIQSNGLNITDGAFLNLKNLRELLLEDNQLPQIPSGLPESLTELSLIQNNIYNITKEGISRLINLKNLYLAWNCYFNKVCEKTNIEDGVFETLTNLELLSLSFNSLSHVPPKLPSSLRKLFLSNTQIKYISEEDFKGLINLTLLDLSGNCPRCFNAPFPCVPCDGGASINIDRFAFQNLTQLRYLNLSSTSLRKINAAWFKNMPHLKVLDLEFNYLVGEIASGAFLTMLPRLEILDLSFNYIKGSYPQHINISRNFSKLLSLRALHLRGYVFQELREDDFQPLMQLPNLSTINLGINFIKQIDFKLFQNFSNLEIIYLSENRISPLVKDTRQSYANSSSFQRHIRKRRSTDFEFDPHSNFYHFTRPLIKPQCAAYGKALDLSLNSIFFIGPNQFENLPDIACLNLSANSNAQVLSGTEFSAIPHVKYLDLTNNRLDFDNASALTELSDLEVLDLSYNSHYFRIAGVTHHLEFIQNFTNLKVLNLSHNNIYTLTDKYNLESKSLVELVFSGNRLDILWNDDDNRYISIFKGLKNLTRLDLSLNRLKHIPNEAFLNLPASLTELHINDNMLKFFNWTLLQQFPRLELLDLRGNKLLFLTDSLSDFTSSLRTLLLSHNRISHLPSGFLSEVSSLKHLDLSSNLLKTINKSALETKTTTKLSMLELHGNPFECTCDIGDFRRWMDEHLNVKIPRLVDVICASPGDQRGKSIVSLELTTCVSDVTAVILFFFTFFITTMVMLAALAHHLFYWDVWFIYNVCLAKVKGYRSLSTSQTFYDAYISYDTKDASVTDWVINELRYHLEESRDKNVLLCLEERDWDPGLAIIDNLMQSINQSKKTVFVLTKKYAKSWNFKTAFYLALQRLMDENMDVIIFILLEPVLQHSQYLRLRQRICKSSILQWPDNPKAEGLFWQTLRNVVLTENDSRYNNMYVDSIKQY
Outline: as §1

Compound | IC50 (human TLR7) [nM] | IC50 (human TLR9) [nM] | IC50 (human TLR8) [nM]
CCCN1CCC(COc2ccc3[nH]c(-c4cn5cnnc5c(C)c4C)c(C(C)C)c3c2)CC1 [Example 62, 6-(3-isopropyl-5-((1-propylpiperidin-4-yl)methoxy)-1H-indol-2-yl)-7,8-dimethyl-[1,2,4]triazolo[4,3-a]pyridine] | 1 | 1290 | 6
Cc1c(-c2[nH]c3ccc(OCC4CCN(CC(=O)N(C)C)CC4)cc3c2C(C)C)cn2cnnc2c1C [Example 89, 2-(4-(((2-(7,8-dimethyl-[1,2,4]triazolo[4,3-a]pyridin-6-yl)-3-isopropyl-1H-indol-5-yl)oxy)methyl)piperidin-1-yl)-N,N-dimethylacetamide] | 7.6 | 6870 | 16.5
Cc1cc(-c2[nH]c3ccc(OCCN4CCOCC4)cc3c2C(C)C)cn2ncnc12 [Example 5, 4-(2-((3-isopropyl-2-(8-methyl-[1,2,4]triazolo[1,5-a]pyridin-6-yl)-1H-indol-5-yl)oxy)ethyl)morpholine] | 8.1 | 37300 | 3.3
COc1ccc(-c2[nH]c3ccc(OCC(=O)NC4CN5CCC4CC5)cc3c2C(C)C)cc1OC (stereo not drawn) [Example 125, 2-((2-(3,4-dimethoxyphenyl)-3-isopropyl-1H-indol-5-yl)oxy)-N-((1s,4s)-quinuclidin-3-yl)acetamide] | 19 | 6330 | 44.4
Cc1cc(-c2[nH]c3ccc(OCC4CCN(C(C)C)CC4)cc3c2C(C)C)ccn1 [Example 191, 3-isopropyl-5-((1-isopropylpiperidin-4-yl)methoxy)-2-(2-methylpyridin-4-yl)-1H-indole] | 84.2 | 2810 | 5.8
CNC(=O)CN1CCC(COc2ccc3[nH]c(-c4cn(C)c(=O)c(C)c4C)c(C(C)C)c3c2)CC1 [Example 116, 2-(4-(((3-isopropyl-2-(1,4,5-trimethyl-6-oxo-1,6-dihydropyridin-3-yl)-1H-indol-5-yl)oxy)methyl)piperidin-1-yl)-N-methylacetamide] | 16.1 | 17000 | 5.3
Cc1cc(-c2[nH]c3ccc(OCCN4CCCC(F)C4)cc3c2C(C)C)cn2ncnc12 (stereo not drawn) [Example 4, 6-(5-(2-(3-fluoropiperidin-1-yl)ethoxy)-3-isopropyl-1H-indol-2-yl)-8-methyl-[1,2,4]triazolo[1,5-a]pyridine] | > 3130 | > 50000 | 15.4
Cc1cc(-c2[nH]c3ccc(OCC4CCN(CCS(C)(=O)=O)CC4)cc3c2C(C)C)cn2ncnc12 [Example 91, 6-(3-isopropyl-5-((1-(2-(methylsulfonyl)ethyl)piperidin-4-yl)methoxy)-1H-indol-2-yl)-8-methyl-[1,2,4]triazolo[1,5-a]pyridine] | 0.7 | 9580 | 1
Cc1cc(-c2[nH]c3ccc(OC4CCNCC4)cc3c2C(C)C)ccn1 [Example 164, 3-isopropyl-2-(2-methylpyridin-4-yl)-5-(piperidin-4-yloxy)-1H-indole] | 11.2 | 1080 | 1.1
Cc1cc(-c2[nH]c3ccc(O[C@@H]4CCNC4)cc3c2C(C)C)ccn1 [Example 157, (R)-3-isopropyl-2-(2-methylpyridin-4-yl)-5-(pyrrolidin-3-yloxy)-1H-indole] | 8.7 | 1910 | 7
Cc1cc(-c2[nH]c3ccc(OCC4CCN(CC(=O)N(C)C)CC4)cc3c2C(C)C)cn(C)c1=O [Example 81, 2-(4-(((2-(1,5-dimethyl-6-oxo-1,6-dihydropyridin-3-yl)-3-isopropyl-1H-indol-5-yl)oxy)methyl)piperidin-1-yl)-N,N-dimethylacetamide] | 26.1 | 24900 | 9.7
Cc1cc(-c2[nH]c3ccc(OCC4CN(CC(C)(C)O)C4)cc3c2C(C)C)cn2ncnc12 [Example 26, 1-(3-(((3-isopropyl-2-(8-methyl-[1,2,4]triazolo[1,5-a]pyridin-6-yl)-1H-indol-5-yl)oxy)methyl)azetidin-1-yl)-2-methylpropan-2-ol] | 1.1 | 3160 | 3.5
COc1ccc(-c2[nH]c3ccc(OC4CCNCC4)cc3c2C(C)C)cc1OC [Example 171, 2-(3,4-dimethoxyphenyl)-3-isopropyl-5-(piperidin-4-yloxy)-1H-indole] | 166 | 939 | 15.3
Cc1cc(-c2[nH]c3ccc(OCC(=O)NC[C@@H](F)C(C)(C)O)cc3c2C(C)C)ccn1 [Example 152, (R)—N-(2-fluoro-3-hydroxy-3-methylbutyl)-2-((3-isopropyl-2-(2-methylpyridin-4-yl)-1H-indol-5-yl)oxy)acetamide] | 1000 | > 50000 | 774
Cc1cc(-c2[nH]c3ccc(OCC4CN(C5COC5)C4)cc3c2C(C)C)cn2ncnc12 [Example 60, 6-(3-isopropyl-5-((1-(oxetan-3-yl)azetidin-3-yl)methoxy)-1H-indol-2-yl)-8-methyl-[1,2,4]triazolo[1,5-a]pyridine] | 1.2 | 2620 | 4.7
